# Patent US12433882B2, “Treatments for amyotrophic lateral sclerosis using dazucorilant” (Corcept Therapeutics Incorporated, priority 2022, dated 2025)
# Experiments:
# [1] = Quantitative whole-body autoradiography (QWBA) study in rats; format: in vivo
# Method: The in vivo distribution of dazucorilant was determined in a quantitative whole-body autoradiography (QWBA) study in rats. Following a single oral administration of ^14C-dazucorilant to male and female rats, radioactivity was steadily absorbed, with maximal tissue concentrations generally occurring at around 12 hours post-dose.
# [2] = biological target: T1, progesterone receptor (PR) (Homo sapiens, UniProt P06401); experiment: Progesterone receptor binding; conditions: 10 μM
# T1 sequence (P06401 1-933): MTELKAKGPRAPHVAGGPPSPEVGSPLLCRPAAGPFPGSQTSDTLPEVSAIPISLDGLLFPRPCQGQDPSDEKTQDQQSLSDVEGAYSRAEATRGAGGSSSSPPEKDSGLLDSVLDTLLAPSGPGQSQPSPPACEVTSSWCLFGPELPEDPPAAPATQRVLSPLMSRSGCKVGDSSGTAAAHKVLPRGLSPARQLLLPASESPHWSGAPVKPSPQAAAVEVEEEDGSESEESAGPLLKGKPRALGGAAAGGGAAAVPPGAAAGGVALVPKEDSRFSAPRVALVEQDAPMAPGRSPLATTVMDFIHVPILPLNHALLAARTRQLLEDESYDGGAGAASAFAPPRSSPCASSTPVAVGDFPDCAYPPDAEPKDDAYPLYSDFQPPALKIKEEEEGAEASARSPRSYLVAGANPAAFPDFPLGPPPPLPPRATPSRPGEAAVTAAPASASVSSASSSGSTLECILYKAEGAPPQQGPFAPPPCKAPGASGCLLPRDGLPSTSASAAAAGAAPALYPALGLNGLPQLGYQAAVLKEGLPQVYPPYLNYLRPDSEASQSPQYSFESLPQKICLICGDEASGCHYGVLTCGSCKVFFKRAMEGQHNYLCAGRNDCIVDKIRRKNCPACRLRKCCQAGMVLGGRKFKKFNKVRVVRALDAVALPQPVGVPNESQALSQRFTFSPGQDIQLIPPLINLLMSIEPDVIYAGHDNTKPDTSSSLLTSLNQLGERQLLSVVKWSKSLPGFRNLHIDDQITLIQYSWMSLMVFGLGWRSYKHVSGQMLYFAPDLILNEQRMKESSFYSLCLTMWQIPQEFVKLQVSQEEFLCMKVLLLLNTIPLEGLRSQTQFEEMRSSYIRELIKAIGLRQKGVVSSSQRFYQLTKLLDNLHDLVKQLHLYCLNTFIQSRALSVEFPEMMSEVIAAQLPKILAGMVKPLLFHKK
# [3] = First In Human study Part 1, single ascending dose PK with or without food; conditions: for AUC(0-inf)/D (adjusted geometric mean) / AUC(0-last)/D (adjusted geometric mean) / Cmax/D (adjusted geometric mean): single dose
# Method: (§1) An adaptive dose, double-blind, placebo-controlled study (NCT04249323, EudraCT 2019-004258-27) was conducted in 110 healthy male and female volunteers (18-60 years old; BMI 18-30 kg/m2; weight≤102 kg; “First In Human” (FIH) study).
# ANOVA model of natural log-transformed PK parameters from part 1 of the FIH study, including a term for treatment fitted as fixed effect. PK parameters normalized to the equivalent of a 1-mg dose. AUC, area under the curve; CI, confidence interval; Cmax, maximum concentration; D, dose.
# ANOVA model of natural log-transformed PK parameters from part 1 of the FIH study, including a term for treatment fitted as fixed effect. CI, confidence interval; Cmax, maximum concentration; AUC, area under the curve.
# cortisol or ACTH levels = experiment: First In Human study Part 2, multiple doses: cortisol and ACTH levels; format: in vivo; conditions: part 2 of the FIH study
# Method: as §1
# androgen receptor = biological target: T2, androgen receptor (Homo sapiens, UniProt P10275); experiment: Androgen receptor binding; conditions: 10 μM
# T2 sequence (P10275 1-920): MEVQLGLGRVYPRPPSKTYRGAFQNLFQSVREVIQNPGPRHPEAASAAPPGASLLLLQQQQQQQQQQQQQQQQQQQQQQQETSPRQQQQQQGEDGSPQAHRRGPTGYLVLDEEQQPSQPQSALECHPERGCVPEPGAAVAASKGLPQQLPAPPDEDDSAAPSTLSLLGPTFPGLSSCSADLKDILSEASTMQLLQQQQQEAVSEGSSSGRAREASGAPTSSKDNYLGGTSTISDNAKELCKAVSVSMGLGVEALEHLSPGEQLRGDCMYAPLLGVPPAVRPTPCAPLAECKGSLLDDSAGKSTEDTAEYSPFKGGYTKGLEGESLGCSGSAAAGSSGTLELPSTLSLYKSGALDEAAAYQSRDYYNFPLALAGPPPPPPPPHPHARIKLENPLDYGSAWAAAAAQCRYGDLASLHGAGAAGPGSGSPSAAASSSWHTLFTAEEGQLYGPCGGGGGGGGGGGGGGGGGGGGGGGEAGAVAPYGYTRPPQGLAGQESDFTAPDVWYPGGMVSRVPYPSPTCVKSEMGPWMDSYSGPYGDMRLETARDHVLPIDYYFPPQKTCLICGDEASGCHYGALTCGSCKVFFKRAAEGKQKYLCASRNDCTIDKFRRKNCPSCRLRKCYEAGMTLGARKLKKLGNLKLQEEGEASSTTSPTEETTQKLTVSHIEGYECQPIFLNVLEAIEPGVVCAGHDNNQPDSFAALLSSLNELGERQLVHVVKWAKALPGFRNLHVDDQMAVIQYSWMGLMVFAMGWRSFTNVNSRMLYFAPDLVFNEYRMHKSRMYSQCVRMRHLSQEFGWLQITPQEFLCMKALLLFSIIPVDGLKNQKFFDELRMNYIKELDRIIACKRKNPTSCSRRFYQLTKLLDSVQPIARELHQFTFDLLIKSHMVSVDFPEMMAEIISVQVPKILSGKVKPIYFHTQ
# [4] = system: effect of prednisone on eosinophils, lymphocytes, neutrophils, osteocalcin; experiment: First In Human study Part 3, proof of pharmacological effect (prednisone challenge); format: in vivo; conditions: prednisone+dazucorilant vs. prednisone alone
# Excerpt: Linear mixed model of PD parameter estimates from part 3 of the FIE study, including terms for treatment fitted as a fixed effect, subject fitted as a random effect, and baseline concentration values fitted as a covariate. AUEC, area under the effect curve; cfb, change from baseline; CI, confidence interval; Emax, maximum change; ns, not significant.
# [5] = first 24 hours after dosing, single oral dose, rats
# [6] = 2-fold dose escalation, 450 mg to 900 mg fed
# [7] = 3-fold dose escalation, 150 mg to 450 mg fasted
compound,measurement,setting,value
"O=C(c1ccccn1)[C@]12Cc3cnn(-c4ccc(F)cc4)c3C=C1CCN(S(=O)(=O)c1ccc(C(F)(F)F)cc1)C2 [dazucorilant, (R)-(1-(4-fluorophenyl)-6-((4-(trifluoromethyl)phenyl)sulfonyl)-4,4a, 5,6,7,8-hexahydro-1-H-pyrazolo[3,4-g]isoquinolin-4a-yl) (pyridin-2-yl)methanone]","Tissue:blood ratio, brain",[1]; [5],> 0.1
same,"Tissue:blood ratio, spinal cord",[1]; [5],> 0.1
same,time of maximal tissue concentrations of radioactivity,"[1]; single oral administration, male and female rats, post-dose",around 12 hours
same,binding to progesterone receptor,[2],0%
same,AUC(0-inf)/D (adjusted geometric mean),[3]; 150 mg FASTED,2.18 ng·h/mL/mg
same,AUC(0-last)/D (adjusted geometric mean),[3]; 150 mg FASTED,1.69 ng·h/mL/mg
same,Cmax/D (adjusted geometric mean),[3]; 150 mg FASTED,0.494 ng/mL/mg
same,exposure in fed vs fasted subjects,"[3]; 300 mg with and without food, FIG. 1A/1B",Greater dazucorilant exposure was observed when dazucorilant was administered to fed subjects
same,AUC(0-inf) Ratio Fed:Fasted,[3]; 450 mg,250.7%
same,AUC(0-last) Ratio Fed:Fasted,[3]; 450 mg,250.7%
same,Cmax Ratio Fed:Fasted,[3]; 450 mg,202.3%
same,AUC(0-inf) (adjusted geometric mean),[3]; 450 mg FASTED,1290 ng·h/mL
same,AUC(0-last) (adjusted geometric mean),[3]; 450 mg FASTED,1180 ng·h/mL
same,Cmax (adjusted geometric mean),[3]; 450 mg FASTED,251 ng/mL
same,AUC(0-inf)/D (adjusted geometric mean),[3]; 450 mg FASTED,2.86 ng·h/mL/mg
same,AUC(0-last)/D (adjusted geometric mean),[3]; 450 mg FASTED,2.62 ng·h/mL/mg
same,Cmax/D (adjusted geometric mean),[3]; 450 mg FASTED,0.557 ng/mL/mg
same,AUC(0-inf) (adjusted geometric mean),[3]; 450 mg FED,3220 ng·h/mL
same,AUC(0-last) (adjusted geometric mean),[3]; 450 mg FED,2950 ng·h/mL
same,Cmax (adjusted geometric mean),[3]; 450 mg FED,508 ng/mL
same,AUC(0-inf)/D (adjusted geometric mean),[3]; 450 mg FED,7.17 ng·h/mL/mg
same,AUC(0-last)/D (adjusted geometric mean),[3]; 450 mg FED,6.56 ng·h/mL/mg
same,Cmax/D (adjusted geometric mean),[3]; 450 mg FED,1.13 ng/mL/mg
same,AUC(0-inf)/D Ratio High:Low Dose,[3]; 450 mg vs 150 mg FASTED,131.3%
same,AUC(0-last)/D Ratio High:Low Dose,[3]; 450 mg vs 150 mg FASTED,155.2%
same,Cmax/D Ratio High:Low Dose,[3]; 450 mg vs 150 mg FASTED,112.9%
same,AUC(0-inf)/D (adjusted geometric mean),[3]; 900 mg FED,10.2 ng·h/mL/mg
same,AUC(0-last)/D (adjusted geometric mean),[3]; 900 mg FED,8.33 ng·h/mL/mg
same,Cmax/D (adjusted geometric mean),[3]; 900 mg FED,1.23 ng/mL/mg
same,AUC(0-inf)/D Ratio High:Low Dose,[3]; 900 mg vs 450 mg FED,42.3%
same,AUC(0-last)/D Ratio High:Low Dose,[3]; 900 mg vs 450 mg FED,127.0%
same,Cmax/D Ratio High:Low Dose,[3]; 900 mg vs 450 mg FED,109.2%
same,increase in AUC(0-inf) on dose escalation,[3]; [6],2.8 fold
same,increase in Cmax on dose escalation,[3]; [6],2.2 fold
same,increase in AUC(0-inf) on dose escalation,[3]; [7],4.0 fold
same,increase in Cmax on dose escalation,[3]; [7],3.4 fold
same,"food effect, increase in exposure","[3]; high-fat breakfast vs fasting (Table 2, 450 mg)",> 2 fold
same,effects on morning or evening cortisol or ACTH levels,cortisol or ACTH levels,no notable effects
same,binding to androgen receptor,androgen receptor,1.5%
same,"effect of dazucorilant on prednisone-induced changes in eosinophils, lymphocytes, osteocalcin, neutrophils",[4],ameliorated the effect of prednisone on these parameters
